From patent US10039713B1, “Drug-loaded ganglioside micelle and the preparation method and use thereof” (Chongqing University, priority 2017, dated 2018)

Tested on: blood brain barrier
Assay: Evaluation on intracranial blood brain barrier penetrating effect of a GM1 micelle (animal living body fluorescence imaging)
Assay type: in vivo
Conditions: healthy mice, intravenous injection of tails, FIG. 2
Experimental: According to the preparation method of DOX-GM1 in the example 1, a fluorescent dye DiR-GM1 mixed micelle was prepared according to the same method. DiR-GM1 micelle and free-DiR were intravenous injected of tails of the healthy mice. The distribution and strength of the DiR fluorescence in tissues are observed and recorded by the animal living body imagery at different time points.

entry into the brain / blood-brain barrier penetration: cannot enter the brain
fluorescence distribution (DiR) in tissues (in-vivo imaging at different time points): concentrated in the liver
Structure (SMILES): CCCCCCCCCCCCCCCCCCN1/C(=C/C=C/C=C/C=C/C2=[N+](CCCCCCCCCCCCCCCCCC)c3ccccc3C2(C)C)C(C)(C)c2ccccc21.[I-] [DiR solution]
